Among the data in PubChem BioAssay (NCI) are TGI and GI50 values, retold here.

Among the test systems are DMS 273 small cell lung; DMS 114 small cell lung; KM20L2 colon; SNB-78 CNS; RXF-631 renal; HOP-18 NSCLC; M19-MEL melanoma; XF 498 CNS; SN12K1 renal; P388 leukemia; P388/ADR leukemia.
Common to all, as to assay: NCI tumour cell line growth inhibition, 48 h

Values joined by “and” are separate entries in the source; they are usually repeats but may differ in a detail not shown here. Equal entries are not always repeated.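 Tested at 5 concentrations; 48 h exposure; 96-well plates; endpoints linearly interpolated, else capped at highest concentration. GI50 = concentration required for 50% inhibition of growth. Definition used: TGI = concentration required for complete inhibition of growth.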 Where only a bound is given, the exact number is not on record here.

`CCN(CC)CCCNC(=O)c1ccc([N+](=O)[O-])cc1O`: the TGI in the experiment on DMS 273 small cell lung, in the experiment on DMS 114 small cell lung, in the experiment on KM20L2 colon, in the experiment on SNB-78 CNS and in the experiment on RXF-631 renal was above 100 µM each time.
With `C=Cc1ccc(C)[n+](C[Si](C)(C)O[Si](C)(C)C[n+]2cc(C=C)ccc2C)c1`, the TGI with DMS 273 small cell lung, in the experiment on DMS 114 small cell lung, in the experiment with KM20L2 colon, with SNB-78 CNS, in the experiment with HOP-18 NSCLC and with M19-MEL melanoma was above 100 µM in each case.
`N#CC1=C(c2ccccc2)NNC(c2ccc(Cl)cc2)CC1=O` (stereo unspecified): the TGI with XF 498 CNS is 77.1 µM; in the experiment on DMS 114 small cell lung, above 100 µM; in the experiment with KM20L2 colon, 61.2 µM; with SNB-78 CNS it was above 100 µM; in the experiment on HOP-18 NSCLC, above 100 µM.
As to `Cn1ccnc1C(O)(c1nccn1C)c1nccn1C`, the TGI in the experiment on XF 498 CNS, in the experiment on DMS 114 small cell lung, in the experiment with SNB-78 CNS, in the experiment with HOP-18 NSCLC and in the experiment on M19-MEL melanoma was above 100 µM throughout.
Take `O=C1NCCS(=O)(=O)N[C@@H](CC2=CC=CCC2)C(=O)N2CCCC12` (stereo partly specified): the TGI in the experiment on XF 498 CNS, in the experiment with DMS 273 small cell lung, in the experiment with DMS 114 small cell lung, in the experiment on KM20L2 colon, in the experiment on SNB-78 CNS and in the experiment with RXF-631 renal was above 100 µM each time. Also, the TGI with HOP-18 NSCLC and with M19-MEL melanoma was above 100 µM in each case.
In the case of `O=C(CN(c1ccccc1)c1ccccc1)N1c2ccccc2C2C=CC=CC21` (stereo unspecified), the TGI is 53.2 µM in the experiment on XF 498 CNS; above 60.3 µM with DMS 273 small cell lung; 23.1 µM with DMS 114 small cell lung; 55.4 µM with KM20L2 colon; above 58.7 µM in the experiment with SNB-78 CNS; 74.9 µM with HOP-18 NSCLC. Moreover, in the experiment on M19-MEL melanoma, the TGI was above 57.4 µM.
With `O=C1Sc2ccccc2C(=O)N2CSCC12` (stereo unspecified), the TGI with XF 498 CNS, in the experiment on DMS 273 small cell lung, in the experiment with DMS 114 small cell lung, with KM20L2 colon, with SNB-78 CNS and in the experiment on HOP-18 NSCLC was above 100 µM each time. The TGI in the experiment with M19-MEL melanoma is above 100 µM.
Take `Cc1cn([C@@H]2C[C@H](CO)[C@@H](O)C2)c(=O)[nH]c1=O`: the TGI with XF 498 CNS, in the experiment with DMS 273 small cell lung, in the experiment with DMS 114 small cell lung, with KM20L2 colon, with SNB-78 CNS and in the experiment on RXF-631 renal was above 100 µM in each case. The TGI in the experiment on HOP-18 NSCLC and with M19-MEL melanoma was above 100 µM throughout.
On to `CSC(=Nc1ccccc1)N(c1ccccc1)c1nc(=[N+](C)C)ss1`, for which the TGI with DMS 273 small cell lung was determined as 2.2 µM; with DMS 114 small cell lung it was 0.46 µM; with KM20L2 colon, 13.7 µM; in the experiment with SNB-78 CNS, 21.4 µM; in the experiment on M19-MEL melanoma it was 4.98 µM.
As for `COc1ccc(-c2oc(/C=N/NC(N)=S)c([N+](=O)[O-])c2-c2ccc(OC)c(OC)c2)cc1OC`, the TGI in the experiment with XF 498 CNS was above 100 µM; in the experiment with DMS 114 small cell lung it was 46.8 µM; in the experiment on KM20L2 colon it was 92.4 µM; in the experiment with RXF-631 renal it was above 100 µM; in the experiment on M19-MEL melanoma, 63.1 µM.
Turning to `COc1ccc(CC2c3c(cc(OC)c(OC)c3OC)CCN2C)cc1OC` (stereo unspecified), the TGI in the experiment on XF 498 CNS, in the experiment with KM20L2 colon, in the experiment with SNB-78 CNS and with HOP-18 NSCLC was above 100 µM in each case.
`COc1cc2c(cc1OC)[C@H]1CN3CCC[C@H]3C=C1c1ccc(OC)c(O)c1-2`: the TGI in the experiment on DMS 273 small cell lung is 0.000139 µM; in the experiment with DMS 114 small cell lung, 0.00014 µM; in the experiment with SNB-78 CNS, 0.00049 µM; in the experiment with HOP-18 NSCLC it was 0.000181 µM; in the experiment on M19-MEL melanoma, below 0.0001 µM.
On to `Nc1nc(N)c(N=O)c(Nc2ccc(Br)cc2)n1`, for which the TGI with XF 498 CNS was 65.4 µM; with DMS 273 small cell lung it was 79.5 µM; in the experiment on DMS 114 small cell lung, 52.1 µM; in the experiment on KM20L2 colon, 95.7 µM; in the experiment on SNB-78 CNS, above 100 µM; in the experiment on HOP-18 NSCLC it was above 100 µM. In the experiment with M19-MEL melanoma, this compound had a TGI above 100 µM.
On to `CC(=O)OCC1OC(n2cc(I)c(=O)[nH]c2=O)C(OC(C)=O)C(OC(C)=O)C1OC(C)=O` (stereo unspecified), for which the TGI with XF 498 CNS, with DMS 273 small cell lung, in the experiment on DMS 114 small cell lung, in the experiment on KM20L2 colon, in the experiment with HOP-18 NSCLC and in the experiment with M19-MEL melanoma was above 100 µM each time.
As to `CCN1CCCC(NCc2c3ccccc3c(CNC3CCCN(CC)C3)c3ccccc23)C1` (stereo unspecified), the TGI with XF 498 CNS is above 52.1 µM; in the experiment on SN12K1 renal, 23.1 µM; in the experiment with DMS 273 small cell lung it was 18.2 µM; in the experiment with DMS 114 small cell lung, 16.1 µM; with P388 leukemia, 9.25 µM; in the experiment on KM20L2 colon, 20.9 µM. The TGI in the experiment with SNB-78 CNS is above 73.1 µM; in the experiment on HOP-18 NSCLC, above 46.6 µM; in the experiment with M19-MEL melanoma it was 17.6 µM; in the experiment on P388/ADR leukemia, 33.8 µM.
For the compound `ClC(Cl)=C1C(=C(Cl)Cl)C(Cl)(Cl)C1(Cl)Cl`, the TGI with DMS 273 small cell lung was 9.87 µM; in the experiment on DMS 114 small cell lung it was 2.33 µM; in the experiment with KM20L2 colon, 11.3 µM; in the experiment on SNB-78 CNS, 7.71 µM; in the experiment with RXF-631 renal it was 13.9 µM; with HOP-18 NSCLC, 19.4 µM. In the experiment on M19-MEL melanoma, this compound came in with a TGI of 9.1 µM.
As for `CC12CCC3C(CCC4CC(OC(=O)Cc5ccc(N(CCCl)CCCl)cc5)CCC43C)C1CCC(=O)N2` (stereo unspecified), the TGI in the experiment on XF 498 CNS stood at 30.8 µM; with DMS 273 small cell lung, 25.6 µM; with DMS 114 small cell lung, 25.6 µM; in the experiment on KM20L2 colon, 31.2 µM; in the experiment on SNB-78 CNS, 40.7 µM; with HOP-18 NSCLC it was 31.2 µM. For the same compound, in the experiment with M19-MEL melanoma, the TGI came out at 33.5 µM.
As for `COc1c(O)c2c3c(c(C)cc(O)c3c1O)C(=O)C(O)(C(C)(C)C(C)=O)C2=O` (stereo unspecified), the TGI in the experiment with XF 498 CNS is above 100 µM; in the experiment on DMS 273 small cell lung it was above 100 µM; in the experiment with DMS 114 small cell lung, 28.2 µM and > 100 µM; in the experiment with KM20L2 colon, above 100 µM; in the experiment with SNB-78 CNS, above 100 µM; with HOP-18 NSCLC it was above 100 µM. For the same compound, the TGI with M19-MEL melanoma is 28.1 µM and 35.3 µM. Moreover, the GI50 in the experiment on DMS 114 small cell lung was 13.3 µM and 55.3 µM.
Take `CC(O)CCCOC(c1ccccc1)(c1ccccc1)c1ccccc1` (stereo unspecified): the TGI with XF 498 CNS came to 28.2 µM; in the experiment on DMS 114 small cell lung, 26.4 µM; in the experiment on KM20L2 colon, 22.3 µM; in the experiment on SNB-78 CNS, 29.3 µM; in the experiment with M19-MEL melanoma, 31 µM.
On to `CCC1=CC2CN3Cn4c(c(COCc5c6n(c7ccccc57)CN5CC7C=C(CC)C5C6(C(=O)OC)C7)c5ccccc54)C(C(=O)OC)(C2)C13`, for which the TGI with XF 498 CNS, in the experiment on DMS 273 small cell lung, in the experiment with DMS 114 small cell lung, in the experiment with KM20L2 colon and with M19-MEL melanoma was above 100 µM each time.
On to `CC1=NN(C(=O)CC(=O)Nc2ccccc2F)C(=O)C1N=Nc1ccccc1[N+](=O)[O-]` (stereo unspecified), for which the TGI in the experiment on XF 498 CNS was above 100 µM; with DMS 273 small cell lung it was above 100 µM; in the experiment with DMS 114 small cell lung, above 100 µM; in the experiment on KM20L2 colon it was above 100 µM; in the experiment with SNB-78 CNS it was above 100 µM; in the experiment on M19-MEL melanoma, 33.6 µM.
